Measured values taken from patent EP0350948B1, “Porphyrin derivatives” (TOYOHAKKA KOGYO KABUSHIKI KAISHA, priority 1988, dated 1990).

Experiments:
[1] = tested on: nitrosoamine-induced pancreatic cancer; experiment: laser irradiation to the extirpated organ (excited fluorescent spectrum, N2-PLS measurement), tumor to tissue ratio; format: in vivo, Golden hamsters; details: i.v. 25 mg/kg bodyweight, organs extirpated at 24 hours after administration
Protocol: Golden hamsters (males, 5 per group, bodyweight approximately 150 g) were implanted subcutaneously tumor cells of the nitrosoamine-induced pancreatic cancer. After 14 to 21 days following implantation, animals were intravenously (i.v.) administered the test substance EG-Ga-DP-diGly (10 mg/ml) which had been diluted with phosphate buffer at 25 mg/kg bodyweight. At 24 hours after administration, the organs including the tumor were extirpated, irradiated with N2-pulsed laser (N2, 337 nm, 2 ns, 400 - 1000 nm), and measured of excited fluorescent spectrum. The wavelengths of 600 - 900 nm were studied using the peak wavelength of NADH at 470 nm as a reference. (N2-PLS measurement). […] (Tumor to tissue ratio).
Excited fluorescent spectra of the organs extirpated at 24 hours after administration were measured, and the peak wavelength at 600 - 900 nm was calculated by setting the peak wavelength at 470 nm as the reference 1. As fluorescence in Mn, Fe and Cu complexes is not sufficiently intense as to enable N2-PLS measurement, the extraction method was applied to these compounds. At 24 hours following administration, the organs were extracted with an organic solvent (such as chloroform-methanol) via acetone powder, and the obtained extract was measured of UV or HPLC to calculate the tumor to tissue ratio.

[2] = tested on: nitrosoamine-induced pancreatic cancer; experiment: in vivo hemorrhagic necrosis effect; set-up: species or system hamsters; key to Hemorrhagic necrosis effect: four scales of G4, G3, G2 and G1; four scales of G4, G3, G2 and G1; four scales of G4, G3, G2 and G1; four scales of G4, G3, G2 and G1; details: for Hemorrhagic necrosis effect: intensity of hemorrhagic necrosis at 24 hours following i.v. administration, and pathological study; for photograph of cancer masses (Fig. 3): 24 hours after administration
Protocol: Cancer bearing hamsters of Experiment 1 were i.v. administered the test substance C6-Ga-DP-diAsp (10) (10 mg/ml) which had been diluted with phosphate buffer at 25 mg/kg bodyweight and 12.5 mg/kg bodyweight respectively. The animals were exsanguinated and autopsied at 24 hours after administration, and observed.
The evaluation was based on the four scales of G4, G3, G2 and G1.

SMILES	Hemorrhagic necrosis effect [2]	other results
C=CC1=C(C)C2=Cc3c(C(C)OCCO)c(C)c4[n]3[Ga][n]3c(c(C)c(CCC(=O)NC(CC(=O)O)C(=O)O)c3=CC3=NC(=C4)C(C)=C3CCC(=O)NC(CC(=O)O)C(=O)O)=CC1=N2 (stereo not drawn) [(2) monoEG-Ga-DP-diAsp, 2-[1-(2-hydroxyethyloxy)ethyl]-4-ethenyl-Ga-deuteroporphynyl diaspartic acid]	G1	tumor/tissue cancer/ kidney [1]: 1.32; tumor/tissue cancer/ liver [1]: 2.30; tumor/tissue cancer/ lung [1]: 1.50
CC1=C(CCC(=O)NC(CC(=O)O)C(=O)O)C2=NC1=Cc1c(C)c(C(C)OCCO)c3[n]1[Ga][n]1c(c(C)c(CCC(=O)NC(CC(=O)O)C(=O)O)c1=C2)=CC1=NC(=C3)C(C)=C1C(C)OCCO (stereo not drawn) [(3) EG-Ga-DP-diAsp, 2,4-bis[1-(2-hydroxyethyloxy)ethyl]-Ga-deuteroporphynyl diaspartic acid]		tumor/tissue cancer/ kidney [1]: 3.45; tumor/tissue cancer/ liver [1]: 3.00; tumor/tissue cancer/ lung [1]: 2.87
CCCCCCCCOC(C)C1=C(C)C2=Cc3c(C(C)OCCCCCCCC)c(C)c4[n]3[Mn][n]3c(c(C)c(CCC(=O)NC(CC(=O)O)C(=O)O)c3=CC3=NC(=C4)C(C)=C3CCC(=O)NC(CC(=O)O)C(=O)O)=CC1=N2 (stereo not drawn) [(36) C8-Mn-DP-diAsp, 2,4-bis(1-octyloxyethyl)-Mn-deuteroporphynyl diaspartic acid]	G3	
CCCCCCCCCCOC(C)C1=C(C)C2=Cc3c(C(C)OCCCCCCCCCC)c(C)c4[n]3[Mn][n]3c(c(C)c(CCC(=O)NCC(=O)NC(CC(=O)O)C(=O)O)c3=CC3=NC(=C4)C(C)=C3CCC(=O)NCC(=O)NC(CC(=O)O)C(=O)O)=CC1=N2 (stereo not drawn) [(39) C10-Mn-DP-diGly-diAsp, 2,4-bis(1-decyloxyethyl)-Mn-deuteroporphynyl diglycyldiaspartic acid]	G2	
CCCCCCCCCCOC(C)C1=C(C)C2=Cc3c(C(C)OCCCCCCCCCC)c(C)c4[n]3[Mn][n]3c(c(C)c(CCC(=O)NC(CC(C)C)C(=O)NC(CC(=O)O)C(=O)O)c3=CC3=NC(=C4)C(C)=C3CCC(=O)NC(CC(C)C)C(=O)NC(CC(=O)O)C(=O)O)=CC1=N2 (stereo not drawn) [(40) C10-Mn-DP-diLeu-diAsp, 2,4-bis(1-decyloxyethyl)-Mn-deuteroporphynyl dileucyldiaspartic acid]	G2	
CCCCCCCCCCOC(C)C1=C(C)C2=Cc3c(C(C)OCCCCCCCCCC)c(C)c4[n]3[Mn][n]3c(c(C)c(CCC(=O)NC(Cc5ccccc5)C(=O)NC(CC(=O)O)C(=O)O)c3=CC3=NC(=C4)C(C)=C3CCC(=O)NC(Cc3ccccc3)C(=O)NC(CC(=O)O)C(=O)O)=CC1=N2 (stereo not drawn) [(41) C10-Mn-DP-diPhe-diAsp, 2,4-bis(1-decyloxyethyl)-Mn-deuteroporphynyl diphenylalanyldiaspartic acid]	G2	
CC(C)=CCC/C(C)=C/COC(C)C1=C(C)C2=Cc3c(C(C)OC/C=C(\C)CCC=C(C)C)c(C)c4[n]3[Mn][n]3c(c(C)c(CCC(=O)NC(CC(=O)O)C(=O)O)c3=CC3=NC(=C4)C(C)=C3CCC(=O)NC(CC(=O)O)C(=O)O)=CC1=N2 (stereo not drawn) [(42) C10(Gera)-Mn-DP-diAsp, 2,4-bis(1-geranyloxyethyl)-Mn-deuteroporphynyl diaspartic acid]	G3	photograph of cancer masses (Fig. 3) [2]: hemorrhagic necrosis
CC(C)=CCCC(C)CCOC(C)C1=C(C)C2=Cc3c(C(C)OCCC(C)CCC=C(C)C)c(C)c4[n]3[Mn][n]3c(c(C)c(CCC(=O)NC(CC(=O)O)C(=O)O)c3=CC3=NC(=C4)C(C)=C3CCC(=O)NC(CC(=O)O)C(=O)O)=CC1=N2 (stereo not drawn) [(43) C10(Citro)-Mn-DP-diAsp, 2,4-bis(1-citronellyloxyethyl)-Mn-deuteroporphynyl diaspartic acid]	G3	
CC1=C(CCC(=O)NC(CC(=O)O)C(=O)O)c2cc3[nH]c(cc4nc(cc5[nH]c(cc1n2)c(C(C)OCCC(C)CCCC(C)C)c5C)C(C(C)OCCC(C)CCCC(C)C)=C4C)c(C)c3CCC(=O)NC(CC(=O)O)C(=O)O.[Mn] (stereo not drawn) [(44) C10(H2Citro)-Mn-DP-diAsp, 2,4-bis(1-dihydrocitronellyloxyethyl)-Mn-deuteroporphynyl diaspartic acid]	G4	
C=CC1=C(C)C2=Cc3c(C(C)OCCC(C)CCCC(C)C)c(C)c4[n]3[Mn][n]3c(c(C)c(CCC(=O)NC(CC(=O)O)C(=O)O)c3=CC3=NC(=C4)C(C)=C3CCC(=O)NC(CC(=O)O)C(=O)O)=CC1=N2 (stereo not drawn) [(45) C10(H2Citro,mono)-Mn-DP-diAsp, 2-(1-dihydrocitronellyloxyethyl)-4-ethenyl-Mn-deuteroporphynyl diaspartic acid]	G2	
C=CC1=C(C)C2=Cc3c(C(C)OCCCCCCCCCCCC)c(C)c4[n]3[Mn][n]3c(c(C)c(CCC(=O)NC(CC(=O)O)C(=O)O)c3=CC3=NC(=C4)C(C)=C3CCC(=O)NC(CC(=O)O)C(=O)O)=CC1=N2 (stereo not drawn) [(49) C12(mono)-Mn-DP-diAsp, 2-(1-dodecyloxyethyl)-4-ethenyl-Mn-deuteroporphynyl diaspartic acid]	G2	
CCCCCCCCCCCCCCOC(C)C1=C(C)C2=Cc3c(C(C)OCCCCCCCCCCCCCC)c(C)c4[n]3[Mn][n]3c(c(C)c(CCC(=O)NC(CC(=O)O)C(=O)O)c3=CC3=NC(=C4)C(C)=C3CCC(=O)NC(CC(=O)O)C(=O)O)=CC1=N2 (stereo not drawn) [(51) C14-Mn-DP-diAsp, 2,4-bis(1-tetradecyloxyethyl)-Mn-deuteroporphynyl diaspartic acid]	G3	
CC1=C(CCC(=O)NC(CC(=O)O)C(=O)O)c2cc3[nH]c(cc4nc(cc5[nH]c(cc1n2)c(C(C)OCC1CCCO1)c5C)C(C(C)OCC1CCCO1)=C4C)c(C)c3CCC(=O)NC(CC(=O)O)C(=O)O.[Mn] (stereo not drawn) [(55) H4Fran-Mn-DP-diAsp, 2,4-bis(1-tetrahydrofurfuryloxyethyl)-Mn-deuteroporphynyl diaspartic acid]	G2	
CC1=C(CCC(=O)NC(CC(=O)O)C(=O)O)C2=NC1=Cc1c(C)c(C(C)OCc3cccnc3)c3[n]1[Mn][n]1c(c(C)c(CCC(=O)NC(CC(=O)O)C(=O)O)c1=C2)=CC1=NC(=C3)C(C)=C1C(C)OCc1cccnc1 (stereo not drawn) [(57) Nct-Mn-DP-diAsp, 2,4-bis(1-nicotynyloxyethyl)-Mn-deuteroporphynyl diaspartic acid]	G2	
CCCCCCCCOC(C)C1=C(C)C2=Cc3c(C(C)OCCCCCCCC)c(C)c4[n]3[Fe][n]3c(c(C)c(CCC(=O)NC(CC(=O)O)C(=O)O)c3=CC3=NC(=C4)C(C)=C3CCC(=O)NC(CC(=O)O)C(=O)O)=CC1=N2 (stereo not drawn) [(62) C8-Fe-DP-diAsp, 2,4-bis(1-octyloxyethyl)-Fe-deuteroporphynyl diaspartic acid]	G3	photograph of cancer masses (Fig. 3) [2]: hemorrhagic necrosis
CCCCCCCCCCCCOC(C)C1=C(C)C2=Cc3c(C(C)OCCCCCCCCCCCC)c(C)c4[n]3[Fe][n]3c(c(C)c(CCC(=O)NC(CC(=O)O)C(=O)O)c3=CC3=NC(=C4)C(C)=C3CCC(=O)NC(CC(=O)O)C(=O)O)=CC1=N2 (stereo not drawn) [(64) C12-Fe-DP-diAsp, 2,4-bis(1-dodecyloxyethyl)-Fe-deuteroporphynyl diaspartic acid]	G3	
CCCCCCCCCCOC(C)C1=C(C)C2=Cc3c(C(C)OCCCCCCCCCC)c(C)c4[n]3[Co][n]3c(c(C)c(CCC(=O)NC(CC(=O)O)C(=O)O)c3=CC3=NC(=C4)C(C)=C3CCC(=O)NC(CC(=O)O)C(=O)O)=CC1=N2 (stereo not drawn) [(66) C10-Co-DP-diAsp, 2,4-bis(1-decyloxyethyl)-Co-deuteroporphynyl diaspartic acid]	G1	
CCCCCCCCCCCCOC(C)C1=C(C)c2cc3[nH]c(cc4nc(cc5[nH]c(cc1n2)c(C)c5C(C)OCCCCCCCCCCCC)C(C)=C4CCC(=O)NC(CC(=O)O)C(=O)O)c(CCC(=O)NC(CC(=O)O)C(=O)O)c3C.[Co] (stereo not drawn) [(67) C12-Co-DP-diAsp, 2,4-bis(1-dodecyloxyethyl)-Co-deuteroporphynyl diaspartic acid]	G1	
CCCCCCCCCCCCOC(C)C1=C(C)C2=Cc3c(C(C)OCCCCCCCCCCCC)c(C)c4[n]3[Cu][n]3c(c(C)c(CCC(=O)NC(CC(=O)O)C(=O)O)c3=CC3=NC(=C4)C(C)=C3CCC(=O)NC(CC(=O)O)C(=O)O)=CC1=N2 (stereo not drawn) [(70) C12-Cu-DP-diAsp, 2,4-bis(1-dodecyloxyethyl)-Cu-deuteroporphynyl diaspartic acid]	G1	
CCCCCCCCCCCCOC(C)C1=C(C)C2=Cc3c(C(C)OCCCCCCCCCCCC)c(C)c4[n]3[Zn][n]3c(c(C)c(CCC(=O)NC(CC(=O)O)C(=O)O)c3=CC3=NC(=C4)C(C)=C3CCC(=O)NC(CC(=O)O)C(=O)O)=CC1=N2 (stereo not drawn) [(73) C12-Zn-DP-diAsp, 2,4-bis(1-dodecyloxyethyl)-Zn-deuteroporphynyl diaspartic acid]	G2	
